Measured values published in US7776833B2, “Use of cyclic bioisosters of purine system derivatives for treating diseases produced by disorders of niterergic and dopaminergic systems” (priority 2003, dated 2010).

Assays:
Format in all cases: in vivo, Wistar rats
[1] = test system: physical dependence from morphine (morphine abstinence); experiment: Morphine abstinence syndrome, signs scored in the open field test; details: Morphine − (morphine + compound); compound 3 x 20 mg/kg intramuscularly; one value for the three compounds
[2] = test system: nitric oxide synthase (NOS); experiment: Nitric oxide synthase activity in brain regions, radiometric [3H]L-citrulline method; details: 3 x 20 mg/kg intramuscularly
Outline: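 Rat cortex, hippocampus, mesencephalon, striatum, brainstem, hypothalamus and cerebellum were homogenized in 20 mM HEPES pH 7.5, and the 11000 g supernatant was incubated 15-60 min at 37 °C with [3H]L-arginine, 0.2 mM CaCl2, FAD, FMN, NADPH and BH4. [3H]L-citrulline was counted after Dowex removal of arginine. Ca2+-dependent/independent activity was split using EDTA ± L-NAME, per mg Bradford protein.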

[3] = test system: nitrites and nitrates (NOx-); experiment: Measurement of nitrates/nitrites (NOx-) in brain regions after the morphine abstinence experiment; details: 3 x 20 mg/kg intramuscularly
Outline: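 Rat brain regions homogenized in 20 mM HEPES pH 7.5 at 4 °C; deproteinized supernatants treated with nitrate reductase, 25 μM NADPH, 25 μM FAD (37 °C, 30 min), then DAN in acid; naphthotriazole fluorescence (ex 365/em 405 nm) against sodium nitrate standard, expressed as nmol/mg protein (Bradford).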

[4] = Groups Nos. 3-14, compound without morphine, one value for all 12 compounds
[5] = Morphine + compound, one value for the three compounds

Row | SMILES | Authentic differences (ξ-square criterion) in appearance of signs of abstinence: <<Wet dog>> shakes [1] | Authentic differences (ξ-square criterion) in appearance of signs of abstinence: Aggression [1] | Authentic differences (ξ-square criterion) in appearance of signs of abstinence: Convulsions [1] | Authentic differences (ξ-square criterion) in appearance of signs of abstinence: Diarrhea [1] | Authentic differences (ξ-square criterion) in appearance of signs of abstinence: Dyspnea [1] | Authentic differences (ξ-square criterion) in appearance of signs of abstinence: Forelimb jogging [1] | Authentic differences (ξ-square criterion) in appearance of signs of abstinence: Grit with teeth [1] | Authentic differences (ξ-square criterion) in appearance of signs of abstinence: Mastication [1] | Authentic differences (ξ-square criterion) in appearance of signs of abstinence: Piloerection [1] | Authentic differences (ξ-square criterion) in appearance of signs of abstinence: Ptosis [1] | Authentic differences (ξ-square criterion) in appearance of signs of abstinence: Rhinorrhea [1] | Authentic differences (ξ-square criterion) in appearance of signs of abstinence: Squeak when touched [1] | Activity of NOS, hippocampus [2, 4] | Activity of NOS, hypothalamus [2, 4] | Activity of NOS, midbrain [2, 4] | Activity of NOS, striatum [2, 4] | Activity of NOS, hippocampus [2, 5] | Activity of NOS, hypothalamus [2, 5] | Activity of NOS, midbrain [2, 5] | Activity of NOS, striatum [2, 5] | other results
1 | O=C([O-])c1cnc2c(=O)[nH]n([C@@H]3O[C@H](CO)[C@@H](O)[C@H]3O)c(=O)c2n1.O=C([O-])c1cnc2c(=O)[nH]n([C@@H]3O[C@H](CO)[C@@H](O)[C@H]3O)c(=O)c2n1.[Na+].[Na+] [Compound 24, disodium salt of 2-carboxy-7-(β-D-ribofuranosile)pyrazino[2,3-d]-6H-pyridazine-5,8-dione] | 0.7821 | 0.7921 | 0.3456 | 0.0067 | 0.0567 | 0.6745 | 0.2994 | 0.1975 | 0.2567 | 0.0105 | 0.2131 | 0.1968 | 3.09 ± 0.16 nmol/min/mg of protein | 5.45 ± 0.24 nmol/min/mg of protein | 2.60 ± 0.29 nmol/min/mg of protein | 1.26 ± 0.08 nmol/min/mg of protein | 2.33 ± 0.11 nmol/min/mg of protein | 5.47 ± 0.32 nmol/min/mg of protein | 2.03 ± 0.31 nmol/min/mg of protein | 1.21 ± 0.10 nmol/min/mg of protein | Nitrites, brainstem [3, 4]: 6.31 ± 0.58 nmol/mg of protein; Nitrites, cerebellum [3, 4]: 6.66 ± 0.63 nmol/mg of protein; Nitrites, cerebral cortex [3, 4]: 4.31 ± 0.37 nmol/mg of protein; Nitrites, hippocampus [3, 4]: 6.47 ± 0.72 nmol/mg of protein; Nitrites, hypothalamus [3, 4]: 6.77 ± 0.83 nmol/mg of protein; Nitrites, midbrain [3, 4]: 6.65 ± 0.70 nmol/mg of protein; Nitrites, striatum [3, 4]: 6.11 ± 0.29 nmol/mg of protein; Nitrites, brainstem [3, 5]: 7.07 ± 0.85 nmol/mg of protein; Nitrites, cerebellum [3, 5]: 5.76 ± 0.49 nmol/mg of protein; Nitrites, cerebral cortex [3, 5]: 4.62 ± 0.27 nmol/mg of protein; Nitrites, hippocampus [3, 5]: 5.27 ± 0.41 nmol/mg of protein; Nitrites, hypothalamus [3, 5]: 6.87 ± 0.75 nmol/mg of protein; Nitrites, midbrain [3, 5]: 5.99 ± 0.58 nmol/mg of protein; Nitrites, striatum [3, 5]: 3.57 ± 0.42 nmol/mg of protein
2 | O=c1[nH][nH]c(=O)c2nccnc12.[Li] [Compound 26, lithium salt of pyrazino[2,3-d]-6H-pyridazine-5,8-dione] | 0.7821 | 0.7921 | 0.3456 | 0.0067 | 0.0567 | 0.6745 | 0.2994 | 0.1975 | 0.2567 | 0.0105 | 0.2131 | 0.1968 | 3.09 ± 0.16 nmol/min/mg of protein | 5.45 ± 0.24 nmol/min/mg of protein | 2.60 ± 0.29 nmol/min/mg of protein | 1.26 ± 0.08 nmol/min/mg of protein | 2.33 ± 0.11 nmol/min/mg of protein | 5.47 ± 0.32 nmol/min/mg of protein | 2.03 ± 0.31 nmol/min/mg of protein | 1.21 ± 0.10 nmol/min/mg of protein | Nitrites, brainstem [3, 4]: 6.31 ± 0.58 nmol/mg of protein; Nitrites, cerebellum [3, 4]: 6.66 ± 0.63 nmol/mg of protein; Nitrites, cerebral cortex [3, 4]: 4.31 ± 0.37 nmol/mg of protein; Nitrites, hippocampus [3, 4]: 6.47 ± 0.72 nmol/mg of protein; Nitrites, hypothalamus [3, 4]: 6.77 ± 0.83 nmol/mg of protein; Nitrites, midbrain [3, 4]: 6.65 ± 0.70 nmol/mg of protein; Nitrites, striatum [3, 4]: 6.11 ± 0.29 nmol/mg of protein; Nitrites, brainstem [3, 5]: 7.07 ± 0.85 nmol/mg of protein; Nitrites, cerebellum [3, 5]: 5.76 ± 0.49 nmol/mg of protein; Nitrites, cerebral cortex [3, 5]: 4.62 ± 0.27 nmol/mg of protein; Nitrites, hippocampus [3, 5]: 5.27 ± 0.41 nmol/mg of protein; Nitrites, hypothalamus [3, 5]: 6.87 ± 0.75 nmol/mg of protein; Nitrites, midbrain [3, 5]: 5.99 ± 0.58 nmol/mg of protein; Nitrites, striatum [3, 5]: 3.57 ± 0.42 nmol/mg of protein
3 | O=C([O-])c1ccc2c(=O)[nH][nH]c(=O)c2c1.O=C([O-])c1ccc2c(=O)[nH][nH]c(=O)c2c1.[Na+].[Na+] [Compound 18, disodium salt of 6-carboxy-benzo [d]-3H-pyridazine-1,4-dione] | 0.7562 | 0.8456 | 0.7546 | 0.0032 | 0.0834 | 0.8217 | 0.8652 | 0.1032 | 0.2567 | 0.0320 | 0.4032 | 0.1342 | 3.09 ± 0.16 nmol/min/mg of protein | 5.45 ± 0.24 nmol/min/mg of protein | 2.60 ± 0.29 nmol/min/mg of protein | 1.26 ± 0.08 nmol/min/mg of protein | 2.51 ± 0.19 nmol/min/mg of protein | 5.36 ± 0.33 nmol/min/mg of protein | 1.99 ± 0.29 nmol/min/mg of protein | 1.29 ± 0.09 nmol/min/mg of protein | Nitrites, brainstem [3, 4]: 6.31 ± 0.58 nmol/mg of protein; Nitrites, cerebellum [3, 4]: 6.66 ± 0.63 nmol/mg of protein; Nitrites, cerebral cortex [3, 4]: 4.31 ± 0.37 nmol/mg of protein; Nitrites, hippocampus [3, 4]: 6.47 ± 0.72 nmol/mg of protein; Nitrites, hypothalamus [3, 4]: 6.77 ± 0.83 nmol/mg of protein; Nitrites, midbrain [3, 4]: 6.65 ± 0.70 nmol/mg of protein; Nitrites, striatum [3, 4]: 6.11 ± 0.29 nmol/mg of protein; Nitrites, brainstem [3, 5]: 6.99 ± 0.82 nmol/mg of protein; Nitrites, cerebellum [3, 5]: 5.85 ± 0.47 nmol/mg of protein; Nitrites, cerebral cortex [3, 5]: 4.93 ± 0.39 nmol/mg of protein; Nitrites, hippocampus [3, 5]: 5.24 ± 0.49 nmol/mg of protein; Nitrites, hypothalamus [3, 5]: 6.91 ± 0.58 nmol/mg of protein; Nitrites, midbrain [3, 5]: 5.75 ± 0.39 nmol/mg of protein; Nitrites, striatum [3, 5]: 3.57 ± 0.42 nmol/mg of protein
4 | O=c1[nH]n([C@@H]2O[C@H](CO)[C@@H](O)[C@H]2O)c(=O)c2ncccc12.[Na] [Compound 1, sodium salt of 7-(β-D-ribofuranosile)pyrido[2,3-d]-6H-pyridazine-5,8-dione] | 1.0000 | 0.8327 | 0.7821 | 0.0046 | 0.0722 | 0.7821 | 0.7144 | 0.1888 | 0.1847 | 0.0201 | 0.3017 | 0.1888 | 3.09 ± 0.16 nmol/min/mg of protein | 5.45 ± 0.24 nmol/min/mg of protein | 2.60 ± 0.29 nmol/min/mg of protein | 1.26 ± 0.08 nmol/min/mg of protein | 2.70 ± 0.14 nmol/min/mg of protein | 5.26 ± 0.28 nmol/min/mg of protein | 1.83 ± 0.23 nmol/min/mg of protein | 1.24 ± 0.08 nmol/min/mg of protein | Nitrites, brainstem [3, 4]: 6.31 ± 0.58 nmol/mg of protein; Nitrites, cerebellum [3, 4]: 6.66 ± 0.63 nmol/mg of protein; Nitrites, cerebral cortex [3, 4]: 4.31 ± 0.37 nmol/mg of protein; Nitrites, hippocampus [3, 4]: 6.47 ± 0.72 nmol/mg of protein; Nitrites, hypothalamus [3, 4]: 6.77 ± 0.83 nmol/mg of protein; Nitrites, midbrain [3, 4]: 6.65 ± 0.70 nmol/mg of protein; Nitrites, striatum [3, 4]: 6.11 ± 0.29 nmol/mg of protein; Nitrites, brainstem [3, 5]: 6.57 ± 0.72 nmol/mg of protein; Nitrites, cerebellum [3, 5]: 5.46 ± 0.44 nmol/mg of protein; Nitrites, cerebral cortex [3, 5]: 4.72 ± 0.37 nmol/mg of protein; Nitrites, hippocampus [3, 5]: 5.44 ± 0.43 nmol/mg of protein; Nitrites, hypothalamus [3, 5]: 6.57 ± 0.88 nmol/mg of protein; Nitrites, midbrain [3, 5]: 5.50 ± 0.48 nmol/mg of protein; Nitrites, striatum [3, 5]: 3.57 ± 0.42 nmol/mg of protein
